Test results: paper PMC11642448, “Pheromone-Binding Protein 1 Performs a Dual Function for Intra- and Intersexual Signaling in a Moth” (International Journal of Molecular Sciences, 2024)

What was measured:
AaenPBP1 [1] = target: T1, AaenPBP1 (Agriphila aeneociliella, UniProt Z9SOT8HEE8); assay: fluorescence titration, Scatchard analysis; assay type: binding
T1 construct: mature protein without signal peptide (1-23 of 166 aa ORF); pET-15b with SUMO tag, His-tag Ni-NTA purification, E. coli BL21(DE3)
T1 sequence (Z9SOT8HEE8 24-166): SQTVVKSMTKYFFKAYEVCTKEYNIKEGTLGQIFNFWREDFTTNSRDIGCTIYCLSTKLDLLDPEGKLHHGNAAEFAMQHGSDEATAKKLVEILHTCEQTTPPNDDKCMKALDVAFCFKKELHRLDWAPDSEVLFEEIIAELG

AaenPBP1 [2] = target: T1, AaenPBP1; assay: competitive fluorescence binding (1-NPN displacement)

SMILES | Kd (AaenPBP1 [1]) [µM] | Ki (AaenPBP1 [2]) [µM]
c1ccc(Nc2cccc3ccccc23)cc1 [1-NPN] | 4.6 | –
CCCCCCCCC=O [1-Nonanal] | – | 7.04
CCCCCC/C=C\CCCCCCCCOC(C)=O [(Z)-9-Hexadecenyl acetate] | – | 1.72
